These results are taken from patent US20250108119A1, “NOVEL STEROID PAYLOADS, STEROID LINKERS, ADCs CONTAINING AND USE THEREOF” (IMMUNEXT, INC., priority 2021, published 2025).

Structures are written as SMILES.

The subject of one assay is human PBMC. The experiment in a line: Cytokine production (IL-1β, IL-6) at 24 hr by human PBMC incubated with 1 ng/mL LPS. As to conditions: for inhibition of IL-1β production / inhibition of IL-6 production: free steroid payloads, serial dilutions, 1 ng/mL LPS, 24 hr. Format: cell-based. How it is done: FIG. 51: INX-SM-3, INX-SM-4, and INX-SM-1 inhibit IL-1β (left) and IL-6 (right) production. Cytokine levels were measured at 24 hr for human PBMCS incubated with 1 ng/mL LPS and serial dilutions (1000-1 nM) of steroid payloads, with the no treatment control plotted on the log-scale x-axis at <1 nM; n=1 donor, standard deviation plotted from technical duplicates.
FIG. 52: INX-SM-1, INX-SM-3, INX-SM-4 and INX-SM-6 inhibit IL-1β production. Cytokine levels measured at 24 hr for human PBMCS incubated with 1 ng/ml LPS and serial dilutions (1000-1 nM) of steroid payloads, with the no treatment control plotted on the log-scale x-axis at <1 nM; n=1 donor, standard deviation plotted from technical duplicates.
FIG. 53: INX-SM-9, INX-SM-31 and INX-SM-35 inhibit IL-1β (top) and IL-6 (bottom) production. Cytokine levels measured at 24 hr for human PBMCS incubated with 1 ng/mL LPS and serial dilutions (1000-0.2 nM) of steroid payloads, with the no treatment control plotted on the log-scale x-axis at <0.2 nM; n=2 donors-representative donor shown. Standard deviation plotted from technical duplicates.
FIG. 54: INX-SM-32 inhibits IL-1β (top) and IL-6 (bottom) production. Cytokine levels measured at 24 hr for human PBMCS incubated with 1 ng/mL LPS and serial dilutions (500-1 nM) of steroid payloads, with the no treatment control plotted on the log-scale x-axis at <1 nM; n=2. Representative donor shown. Standard deviation plotted from technical duplicates.
Cytokine levels measured at 24 hr for human PBMCS incubated with 1 ng/ml LPS and serial dilutions (1000-0.5 nM) of steroid payloads, with the no treatment control plotted on the log-scale x-axis at <0.5 nM; n=1 donor, standard deviation plotted from technical duplicates.
FIG. 56: INX-SM-2 and INX-SM-7 show inhibition in IL-1β. Average Cytokine levels measured at 24 hr for human PBMCS incubated with 1 ng/ml LPS and serial dilutions (1000-0.16 nM) of steroid payloads, with the no treatment control plotted on the log-scale x-axis at <0.16 nM; n=1, standard deviation plotted from technical duplicates. […]
Average cytokine levels measured at 24 hr for human PBMC incubated with 1 ng/ml LPS and serial dilutions (100-0.032 nM) of glucocorticoid payloads; n=1, mean of technical duplicates.
Average cytokine levels measured at 24 hr for human PBMC incubated with 1 ng/mL LPS and serial dilutions (1000-0.32 nM) of glucocorticoid payloads; n=1, mean of technical duplicates.
Cytokine levels measured at 24 hr for human PBMC incubated with 1 ng/mL LPS and serial dilutions (1000-0.5 nM) of steroid payloads, with the no treatment control plotted on the log-scale x-axis at <0.5 nM; n=1 donor, mean of technical duplicates plotted.
Average cytokine levels for A. hull-1β B. huIL-6 measured at 24 hr for human PBMC incubated with 1 ng/mL LPS and serial dilutions (1000-0.16 nM) of conjugated steroid linker payloads, with the no treatment control plotted on the log-scale x-axis at <0.16 nM; n=1, standard deviation plotted from technical duplicates. Values above the ULOQ (12,500 pg/mL for IL-1b and 150,000 pg/mL for IL-6) were plotted as the extrapolated value.
Average cytokine levels for IL-1β measured at 24 hr for human PBMC incubated with 1 ng/mL LPS and serial dilutions (1000-0.16 nM) of conjugated steroid linker payloads, with the no treatment control plotted on the log-scale x-axis at <0.16 nM; n=1, mean plotted of technical duplicates
Average cytokine levels for IL-1β measured at 24 hr for human PBMC incubated with 1 ng/mL LPS and serial dilutions (1000-0.16 nM) of conjugated steroid linker payloads, with the no treatment control plotted on the log-scale x-axis at <0.16 nM; n=1, mean plotted of technical duplicates.
FIG. 66: Analogs of INX V are potent relative to INX231J. […]

The subject of assay [1] is LPS stimulated human PBMCs. In words: LPS stimulated human PBMC, IL-1β and IL-6 ELISA. In kind it is cell-based. As to conditions: for inhibition of IL-1β and IL-6 production / inhibition of IL-1β production: 24 hr. How it is done:
The potency of novel steroids was assessed in a model of LPS stimulated human peripheral blood mononuclear cells (PBMCS). Stimulated PBMCs in this assay produce multiple pro-inflammatory cytokines1.
In all the following experiments, human PBMC, isolated from 1-2 healthy donors per study, were stimulated with LPS to induce cytokine production.
LPS was added either immediately after addition of free payload, or in the case of conjugates, four hours after addition of the conjugate.
Cells were plated in flat bottom 96 well plates at a final concentration of 150,000 cells/well, with technical duplicates for each condition.
Test agents were serially diluted in the assay media and added to a final concentration of 1,000 nM-1 nM or 0.2 nM depending on the assay or as a no treatment control.
LPS stimulation was added to a final concentration of 1 ng/ml.
Human IL-1β and IL-6 ELISA kits were used on supernatants according to vendor protocols. All graphs were prepared with GraphPad (Prism).
(In general: ELISA stands for enzyme-linked immunosorbent assay.)

Where [2] appears, read: Experiment 1: free payload 1000-1 nM, 1 ng/ml LPS, n=1 donor.
Where [3] appears, read: Experiment 2: free payload 1000-1 nM, n=1 donor.
Where [4] appears, read: Experiment 6: free payload 1000-0.16 nM.

On to `C[C@]12C=CC(=O)C=C1[C@@H](F)C[C@H]1[C@@H]3C[C@H]4O[C@@H](c5ccc(CC6CC7(C6)CC(NC(=O)[C@H](CCC(=O)O)NC(=O)CNC(=O)CBr)C7)cc5)O[C@@]4(C(=O)CO)[C@@]3(C)C[C@H](O)[C@@]12F` (stereo partly drawn) [INX A23, (S)-4-(2-(2-bromoacetamido)acetamido)-5-((6-(4-((2S,6aS,6bR,7S,8aS,8bS,10R,11aR,12aS,12bS)-2,6b-difluoro-7-hydroxy-8b-(2-hydroxyacetyl)-6a,8a-dimethyl-4-oxo-2,4,6a,6b,7,8,8a,8b,11a,12,12a,12b-dodecahydro-1H-naphtho[2′,1′:4,5]indeno[1,2-d][1,3]dioxol-10-yl)benzyl)spiro[3.3]heptan-2-yl)amino)-5-oxopentanoic acid], for which the “potency in reducing IL-1β production” value in the assay on human PBMC (anti-VISTA conjugates, serial dilutions with respect to total ADC concentration (20-0.003 μg/mL), equivalent or reduced DAR) was “enhanced potency”. For the same compound, the “potency of conjugated linker payloads over INX J (conclusions)” value in assay [1] is recorded as “enhanced potency”.
Regarding `C[C@]12C=CC(=O)C=C1CC[C@@H]1[C@@H]2[C@@H](O)C[C@@]2(C)[C@H]1C[C@H]1O[C@@H](c3ccc(Cc4cnc(N)s4)cc3)O[C@]12C(=O)CO` [INX-SM-1, (6aR,6bS,7S,8aS,8bS,10R,11aR,12aS,12bS)-10-(4-((2-aminothiazol-5-yl)methyl)phenyl)-7-hydroxy-8b-(2-hydroxyacetyl)-6a,8a-dimethyl-1,2,6a,6b,7,8,8a,8b,11a,12,12a,12b-dodecahydro-4H-naphtho[2′,1′:4,5]indeno[1,2-d][1,3]dioxol-4-one], in the assay on human PBMC, the “inhibition of IL-1β production” value was “inhibit” and the “inhibition of IL-6 production” value is “inhibit”. In assay [1] (setting [2]), the “inhibition of IL-1β and IL-6 production” value is “inhibit both IL-1β and IL-6 production”. Further, the “inhibition of IL-1β production” value in assay [1] (setting [3]) is given as “show inhibition in IL-1β production”.
For the compound `C[C@]12C=CC(=O)C=C1CC[C@@H]1[C@@H]2[C@@H](O)C[C@@]2(C)[C@H]1C[C@H]1O[C@@H](c3ccc(Cc4csc(N)n4)cc3)O[C@]12C(=O)CO` [INX-SM-2, (6aR,6bS,7S,8aS,8bS,10R,11aR,12aS,12bS)-10-(4-((2-aminothiazol-4-yl)methyl)phenyl)-7-hydroxy-8b-(2-hydroxyacetyl)-6a,8a-dimethyl-1,2,6a,6b,7,8,8a,8b,11a,12,12a,12b-dodecahydro-4H-naphtho[2′,1′:4,5]indeno[1,2-d][1,3]dioxol-4-one], the entries for the “inhibition of IL-1β production” value (in the assay on human PBMC; in assay [1] (setting [4])) were “inhibition” and “dose-dependent inhibition in IL-1β production”, respectively.
As to `C[C@]12C=CC(=O)C=C1CC[C@@H]1[C@@H]2[C@@H](O)C[C@@]2(C)[C@H]1C[C@H]1O[C@@H](C34CC(Cc5cccc(N)c5)(C3)C4)O[C@]12C(=O)CO` [INX-SM-4, (6aR,6bS,7S,8aS,8bS,10R,11aR,12aS,12bS)-10-(3-(3-aminobenzyl)bicyclo[1.1.1]pentan-1-yl)-7-hydroxy-8b-(2-hydroxyacetyl)-6a,8a-dimethyl-1,2,6a,6b,7,8,8a,8b,11a,12,12a,12b-dodecahydro-4H-naphtho[2′,1′:4,5]indeno[1,2-d][1,3]dioxol-4-one], the “inhibition of IL-1β production” value with human PBMC is reported as “inhibit”; in assay [1] (setting [3]) it was “show inhibition in IL-1β production”. The “inhibition of IL-6 production” value in the assay with human PBMC is recorded as “inhibit”. In addition, in assay [1] (setting [2]), the “inhibition of IL-1β and IL-6 production” value is “inhibit both IL-1β and IL-6 production”.
As for `C[C@]12C=CC(=O)C=C1CC[C@@H]1[C@@H]2[C@@H](O)C[C@@]2(C)[C@H]1C[C@H]1O[C@@H](c3cnc(Cc4cccc(N)c4)s3)O[C@]12C(=O)CO` [INX-SM-6], the entries for the “inhibition of IL-1β production” value (in the assay on human PBMC; in assay [1] (setting [3])) were “inhibit” and “show inhibition in IL-1β production”, respectively.
As for `C[C@]12C=CC(=O)C=C1CC[C@@H]1[C@@H]2[C@@H](O)C[C@@]2(C)[C@H]1C[C@H]1O[C@@H](c3ccc(Cc4ncc(N)s4)cc3)O[C@]12C(=O)CO` [INX-SM-7, (6aR,6bS,7S,8aS,8bS,10R,11aR,12aS,12bS)-10-(4-((5-aminothiazol-2-yl)methyl)phenyl)-7-hydroxy-8b-(2-hydroxyacetyl)-6a,8a-dimethyl-1,2,6a,6b,7,8,8a,8b,11a,12,12a,12b-dodecahydro-4H-naphtho[2′,1′:4,5]indeno[1,2-d][1,3]dioxol-4-one], the “inhibition of IL-1β production” value was “inhibition” with human PBMC and “dose-dependent inhibition in IL-1β production” in assay [1] (setting [4]).
For the compound `C[C@]12C=CC(=O)C=C1CC[C@@H]1[C@@H]2[C@@H](O)C[C@@]2(C)[C@H]1C[C@H]1O[C@@H](c3ccc(CC45C6C7C4C4C5C6C74N)cc3)O[C@]12C(=O)CO` (stereo partly drawn) [INX-SM-9, (6aR,6bS,7S,8aS,8bS,10R,11aR,12aS,12bS)-10-(4-((4-aminocuban-1-yl)methyl)phenyl)-7-hydroxy-8b-(2-hydroxyacetyl)-6a,8a-dimethyl-1,2,6a,6b,7,8,8a,8b,11a,12,12a,12b-dodecahydro-4H-naphtho[2′,1′:4,5]indeno[1,2-d][1,3]dioxol-4-one], the “inhibition of IL-1β production” value with human PBMC is recorded as “inhibit”; in assay [1] (Experiment 3: free payload 1000-0.2 nM, n=2 donors), “dose dependent inhibition in IL-1β production”. Besides, the “inhibition of IL-6 production” value in the assay on human PBMC is “inhibit”.
`C[C@]12C=CC(=O)C=C1CC[C@@H]1[C@@H]2[C@@H](O)C[C@@]2(C)[C@H]1C[C@H]1O[C@@H](c3ccc(CC45CCC(N)(CC4)CC5)cc3)O[C@]12C(=O)CO` [INX-SM-10, (6aR,6bS,7S,8aS,8bS,11aR,12aS,12bS)-10-(4-((4-aminobicyclo[2.2.2]octan-1-yl)methyl)phenyl)-7-hydroxy-8b-(2-hydroxyacetyl)-6a,8a-dimethyl-1,2,6a,6b,7,8,8a,8b,11a,12,12a,12b-dodecahydro-4H-naphtho[2′,1′:4,5]indeno[1,2-d][1,3]dioxol-4-one]: in the assay on human PBMC, the “inhibition of IL-1β production” value is listed as “robust inhibition” and the “inhibition of IL-6 production” value is listed as “robust inhibition”. In addition, the “inhibition of IL-1β and IL-6 production” value in assay [1] (Experiment 5: free payload 1000-0.5 nM) is “robust inhibition in IL-1β (top) and IL-6 (bottom) production”.
